Laboratory results published in the NIST ThermoML archive (doi:10.1016/j.jct.2006.09.008).
± gives the expanded uncertainty stated by the source.

Experiment: molar heat capacity at constant pressure; mn = molality of the nth substance listed, in mol/kg
Settings: 350 kPa, Liquid

O=[N+]([O-])[O-].O=[N+]([O-])[O-].[Mg+2] [magnesium nitrate] + O
molar heat capacity at constant pressure [J/K/mol]
Settings	m1 = 0.0228	m1 = 0.0567	m1 = 0.1086	m1 = 0.2145	m1 = 0.3197	m1 = 0.4749	m1 = 0.6211	m1 = 0.811	m1 = 1.014
278.15 K	75.58 ± 0.3	75.4 ± 0.3	75.14 ± 0.3	74.65 ± 0.3	74.24 ± 0.3	73.72 ± 0.29	73.31 ± 0.29	72.9 ± 0.29	72.59 ± 0.29
283.15 K	75.43 ± 0.3	75.26 ± 0.3	75.04 ± 0.3	74.61 ± 0.3	74.25 ± 0.3	73.79 ± 0.29	73.43 ± 0.29	73.07 ± 0.29	72.79 ± 0.29
288.15 K	75.33 ± 0.3	75.17 ± 0.3	74.98 ± 0.3	74.6 ± 0.3	74.28 ± 0.3	73.86 ± 0.3	73.54 ± 0.29	73.22 ± 0.29	72.97 ± 0.29
293.15 K	75.26 ± 0.3	75.12 ± 0.3	74.94 ± 0.3	74.6 ± 0.3	74.31 ± 0.3	73.94 ± 0.3	73.65 ± 0.29	73.35 ± 0.29	73.12 ± 0.29
298.15 K	75.22 ± 0.3	75.09 ± 0.3	74.92 ± 0.3	74.62 ± 0.3	74.35 ± 0.3	74.01 ± 0.3	73.74 ± 0.3	73.47 ± 0.29	73.26 ± 0.29
303.15 K	75.19 ± 0.3	75.07 ± 0.3	74.92 ± 0.3	74.64 ± 0.3	74.39 ± 0.3	74.07 ± 0.3	73.83 ± 0.3	73.58 ± 0.29	73.38 ± 0.29
308.15 K	75.18 ± 0.3	75.07 ± 0.3	74.92 ± 0.3	74.66 ± 0.3	74.43 ± 0.3	74.13 ± 0.3	73.91 ± 0.3	73.67 ± 0.29	73.48 ± 0.29
313.15 K	75.18 ± 0.3	75.07 ± 0.3	74.94 ± 0.3	74.69 ± 0.3	74.47 ± 0.3	74.19 ± 0.3	73.98 ± 0.3	73.75 ± 0.29	73.58 ± 0.3
318.15 K	75.2 ± 0.3	75.09 ± 0.3	74.96 ± 0.3	74.72 ± 0.3	74.52 ± 0.3	74.25 ± 0.3	74.04 ± 0.3	73.83 ± 0.29	73.66 ± 0.3
323.15 K	75.22 ± 0.3	75.12 ± 0.3	74.99 ± 0.3	74.76 ± 0.3	74.56 ± 0.3	74.3 ± 0.3	74.11 ± 0.3	73.9 ± 0.3	73.74 ± 0.3
328.15 K	75.25 ± 0.3	75.15 ± 0.3	75.03 ± 0.3	74.81 ± 0.3	74.61 ± 0.3	74.36 ± 0.3	74.17 ± 0.3	73.97 ± 0.3	73.82 ± 0.3
333.15 K	75.29 ± 0.3	75.19 ± 0.3	75.07 ± 0.3	74.85 ± 0.3	74.66 ± 0.3	74.42 ± 0.3	74.23 ± 0.3	74.03 ± 0.3	73.89 ± 0.3
338.15 K	75.34 ± 0.3	75.24 ± 0.3	75.12 ± 0.3	74.91 ± 0.3	74.72 ± 0.3	74.48 ± 0.3	74.3 ± 0.3	74.1 ± 0.3	73.95 ± 0.3
343.15 K	75.39 ± 0.3	75.3 ± 0.3	75.18 ± 0.3	74.96 ± 0.3	74.78 ± 0.3	74.54 ± 0.3	74.36 ± 0.3	74.16 ± 0.3	74.02 ± 0.3
348.15 K	75.46 ± 0.3	75.36 ± 0.3	75.24 ± 0.3	75.02 ± 0.3	74.84 ± 0.3	74.6 ± 0.3	74.42 ± 0.3	74.22 ± 0.3	74.08 ± 0.3
353.15 K	75.53 ± 0.3	75.43 ± 0.3	75.31 ± 0.3	75.09 ± 0.3	74.9 ± 0.3	74.66 ± 0.3	74.48 ± 0.3	74.28 ± 0.3	74.14 ± 0.3
358.15 K	75.61 ± 0.3	75.51 ± 0.3	75.38 ± 0.3	75.16 ± 0.3	74.97 ± 0.3	74.73 ± 0.3	74.55 ± 0.3	74.35 ± 0.3	74.2 ± 0.3
363.15 K	75.69 ± 0.3	75.59 ± 0.3	75.46 ± 0.3	75.24 ± 0.3	75.04 ± 0.3	74.8 ± 0.3	74.61 ± 0.3	74.42 ± 0.3	74.27 ± 0.3
368.15 K	75.78 ± 0.3	75.68 ± 0.3	75.55 ± 0.3	75.32 ± 0.3	75.12 ± 0.3	74.87 ± 0.3	74.68 ± 0.3	74.48 ± 0.3	74.33 ± 0.3
373.15 K	75.88 ± 0.3	75.78 ± 0.3	75.64 ± 0.3	75.4 ± 0.3	75.21 ± 0.3	74.95 ± 0.3	74.76 ± 0.3	74.55 ± 0.3	74.4 ± 0.3
378.15 K	75.99 ± 0.3	75.88 ± 0.3	75.74 ± 0.3	75.5 ± 0.3	75.32 ± 0.3	75.05 ± 0.3	74.83 ± 0.3	74.63 ± 0.3	74.47 ± 0.3
383.15 K	76.11 ± 0.3	76 ± 0.3	75.85 ± 0.3	75.6 ± 0.3	75.42 ± 0.3	75.14 ± 0.3	74.92 ± 0.3	74.71 ± 0.3	74.55 ± 0.3
388.15 K	76.24 ± 0.31	76.12 ± 0.3	75.97 ± 0.3	75.7 ± 0.3	75.52 ± 0.3	75.24 ± 0.3	75.03 ± 0.3	74.79 ± 0.3	74.63 ± 0.3
393.15 K	76.38 ± 0.31	76.25 ± 0.3	76.09 ± 0.31	75.82 ± 0.3	75.63 ± 0.3	75.34 ± 0.3	75.15 ± 0.3	74.89 ± 0.3	74.73 ± 0.3
